“And” between values parts separate entries of the source, which are not always exact repeats. Identical values can stand only once.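 96-well plates; 48 h exposure; 5 concentrations. Endpoints by linear interpolation between flanking doses. Not reached: highest tested concentration assigned. At the GI50, growth is halved. At the TGI there is no net growth.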
Assays:
Assay in all cases: NCI anticancer screen, dose series, 48 h
786-0 renal = test system: 786-0 renal
A498 renal = test system: A498 renal
A549 NSCLC = test system: A549 NSCLC
ACHN renal = test system: ACHN renal
CAKI-1 renal = test system: CAKI-1 renal
CCRF-CEM leukemia = test system: CCRF-CEM leukemia
COLO 205 colon = test system: COLO 205 colon
DLD-1 colon = test system: DLD-1 colon
DMS 114 small cell lung = test system: DMS 114 small cell lung
EKVX NSCLC = test system: EKVX NSCLC
HCC-2998 colon = test system: HCC-2998 colon
HCT-116 colon = test system: HCT-116 colon
HCT-15 colon = test system: HCT-15 colon
HL-60(TB) leukemia = test system: HL-60(TB) leukemia
HOP-18 NSCLC = test system: HOP-18 NSCLC
HOP-62 NSCLC = test system: HOP-62 NSCLC
HOP-92 NSCLC = test system: HOP-92 NSCLC
HT29 colon = test system: HT29 colon
IGROV1 ovarian = test system: IGROV1 ovarian
K-562 leukemia = test system: K-562 leukemia
KM12 colon = test system: KM12 colon
KM20L2 colon = test system: KM20L2 colon
LOX IMVI melanoma = test system: LOX IMVI melanoma
LXFL 529 NSCLC = test system: LXFL 529 NSCLC
M14 melanoma = test system: M14 melanoma
M19-MEL melanoma = test system: M19-MEL melanoma
MALME-3M melanoma = test system: MALME-3M melanoma
MOLT-4 leukemia = test system: MOLT-4 leukemia
NCI-H226 lung = test system: NCI-H226 lung
NCI-H23 lung = test system: NCI-H23 lung
NCI-H460 lung = test system: NCI-H460 lung
NCI-H522 lung = test system: NCI-H522 lung
OVCAR-3 ovarian = test system: OVCAR-3 ovarian
OVCAR-4 ovarian = test system: OVCAR-4 ovarian
OVCAR-5 ovarian = test system: OVCAR-5 ovarian
OVCAR-8 ovarian = test system: OVCAR-8 ovarian
RPMI-8226 leukemia = test system: RPMI-8226 leukemia
RXF 393 renal = test system: RXF 393 renal
RXF-631 renal = test system: RXF-631 renal
SF-268 CNS = test system: SF-268 CNS
SF-295 CNS = test system: SF-295 CNS
SF-539 CNS = test system: SF-539 CNS
SK-MEL-28 melanoma = test system: SK-MEL-28 melanoma
SK-MEL-5 melanoma = test system: SK-MEL-5 melanoma
SK-OV-3 ovarian = test system: SK-OV-3 ovarian
SN12C renal = test system: SN12C renal
SNB-19 CNS = test system: SNB-19 CNS
SNB-75 CNS = test system: SNB-75 CNS
SNB-78 CNS = test system: SNB-78 CNS
SR leukemia = test system: SR leukemia
SW-620 colon = test system: SW-620 colon
TK-10 renal = test system: TK-10 renal
U251 CNS = test system: U251 CNS
UACC-257 melanoma = test system: UACC-257 melanoma
UACC-62 melanoma = test system: UACC-62 melanoma
UO-31 renal = test system: UO-31 renal
DMS 273 small cell lung = test system: DMS 273 small cell lung
SK-MEL-2 melanoma = test system: SK-MEL-2 melanoma

CC1=CCP(C(F)(F)F)P(C(F)(F)F)C1 (stereo unspecified)
TGI (786-0 renal): > 100 µM | TGI (A498 renal): > 100 µM | TGI (A549 NSCLC): > 100 µM | TGI (ACHN renal): > 100 µM | TGI (CAKI-1 renal): > 100 µM | TGI (CCRF-CEM leukemia): > 100 µM | TGI (COLO 205 colon): > 100 µM | TGI (DLD-1 colon): > 100 µM | TGI (DMS 114 small cell lung): > 100 µM | TGI (EKVX NSCLC): > 100 µM | TGI (HCC-2998 colon): > 100 µM | TGI (HCT-116 colon): > 100 µM | TGI (HCT-15 colon): > 100 µM | TGI (HL-60(TB) leukemia): > 100 µM | TGI (HOP-18 NSCLC): > 100 µM | TGI (HOP-62 NSCLC): > 100 µM | TGI (HOP-92 NSCLC): > 100 µM | TGI (HT29 colon): > 100 µM | TGI (IGROV1 ovarian): > 100 µM | TGI (K-562 leukemia): > 100 µM | TGI (KM12 colon): > 100 µM | TGI (KM20L2 colon): > 100 µM | TGI (LOX IMVI melanoma): > 100 µM | TGI (LXFL 529 NSCLC): > 100 µM | TGI (M14 melanoma): > 100 µM | TGI (M19-MEL melanoma): > 100 µM | TGI (MALME-3M melanoma): > 100 µM | TGI (MOLT-4 leukemia): > 100 µM | TGI (NCI-H226 lung): > 100 µM | TGI (NCI-H23 lung): > 100 µM | TGI (NCI-H460 lung): > 100 µM | TGI (NCI-H522 lung): > 100 µM | TGI (OVCAR-3 ovarian): > 100 µM | TGI (OVCAR-4 ovarian): > 100 µM | TGI (OVCAR-5 ovarian): > 100 µM | TGI (OVCAR-8 ovarian): > 100 µM | TGI (RPMI-8226 leukemia): > 100 µM | TGI (RXF 393 renal): 58.3 µM | TGI (RXF-631 renal): > 100 µM | TGI (SF-268 CNS): > 100 µM | TGI (SF-295 CNS): > 100 µM | TGI (SF-539 CNS): > 100 µM | TGI (SK-MEL-28 melanoma): > 100 µM | TGI (SK-MEL-5 melanoma): > 100 µM | TGI (SK-OV-3 ovarian): > 100 µM | TGI (SN12C renal): > 100 µM | TGI (SNB-19 CNS): > 100 µM | TGI (SNB-75 CNS): > 100 µM | TGI (SNB-78 CNS): > 100 µM | TGI (SR leukemia): > 100 µM | TGI (SW-620 colon): > 100 µM | TGI (TK-10 renal): > 100 µM | TGI (U251 CNS): > 100 µM | TGI (UACC-257 melanoma): > 100 µM | TGI (UACC-62 melanoma): > 100 µM | TGI (UO-31 renal): > 100 µM

Cc1c2cc[n+](C)cc2c(C)c2c1[nH]c1ccc(OC(C)C)cc12
GI50 (786-0 renal): 0.223 µM and 1.41 µM | TGI (786-0 renal): 9.1 µM and 32.5 µM | TGI (A498 renal): > 46.8 µM | TGI (A549 NSCLC): > 100 µM | TGI (ACHN renal): > 100 µM | TGI (CAKI-1 renal): > 35.1 µM | GI50 (CCRF-CEM leukemia): 2.59 µM and 15.9 µM | TGI (CCRF-CEM leukemia): 23.9 µM and > 64.7 µM | TGI (COLO 205 colon): 3.08 µM and 2.97 µM | GI50 (DLD-1 colon): 1.91 µM and 6.02 µM | TGI (DLD-1 colon): > 100 µM | TGI (DMS 273 small cell lung): 10.9 µM and 12.5 µM | TGI (EKVX NSCLC): > 100 µM | GI50 (HCC-2998 colon): 2.87 µM and 6.45 µM | TGI (HCC-2998 colon): 9.95 µM and 20 µM | TGI (HCT-116 colon): > 35.8 µM and 20.4 µM | TGI (HCT-15 colon): > 100 µM | TGI (HL-60(TB) leukemia): 11.2 µM and 39.9 µM | TGI (HOP-18 NSCLC): 27.1 µM and 35.4 µM | GI50 (HOP-62 NSCLC): 1.23 µM and 3.13 µM | TGI (HOP-62 NSCLC): 19.9 µM and 27.3 µM | TGI (HOP-92 NSCLC): 13.5 µM and 16.8 µM | TGI (HT29 colon): 18.5 µM and 24.4 µM | TGI (IGROV1 ovarian): 22.3 µM and 29.5 µM | GI50 (K-562 leukemia): 1.02 µM and 2.55 µM | TGI (K-562 leukemia): > 46.4 µM | TGI (KM12 colon): 13.3 µM and 11.4 µM | TGI (KM20L2 colon): 44.3 µM and 39.8 µM | TGI (LOX IMVI melanoma): 21.4 µM and 26.2 µM | TGI (LXFL 529 NSCLC): 5.04 µM and 11.3 µM | TGI (M14 melanoma): 35 µM and 26.7 µM | TGI (M19-MEL melanoma): 6.14 µM and 7.31 µM | TGI (MALME-3M melanoma): 3.89 µM and 5.25 µM | TGI (MOLT-4 leukemia): 20.4 µM and 17.1 µM | GI50 (NCI-H226 lung): 0.395 µM and 1.07 µM | TGI (NCI-H226 lung): 2.42 µM and 6.12 µM | TGI (NCI-H23 lung): 5.08 µM and 7.09 µM | TGI (NCI-H460 lung): 11.8 µM and 13.6 µM | TGI (NCI-H522 lung): 3.8 µM and 8.1 µM | TGI (OVCAR-3 ovarian): 14.6 µM and 26.7 µM | TGI (OVCAR-4 ovarian): 17.4 µM and > 45.2 µM | TGI (OVCAR-5 ovarian): > 100 µM and 67.3 µM | GI50 (OVCAR-8 ovarian): 0.649 µM and 1.61 µM | TGI (OVCAR-8 ovarian): 26 µM and 18.9 µM | TGI (RPMI-8226 leukemia): 36.9 µM and > 60.5 µM | GI50 (RXF 393 renal): 7.26 µM and 20.4 µM | TGI (RXF 393 renal): > 100 µM | TGI (SF-268 CNS): 1.88 µM and 2.82 µM | GI50 (SF-295 CNS): 0.231 µM and 1.7 µM | TGI (SF-539 CNS): 9.82 µM and 12.5 µM | TGI (SK-MEL-2 melanoma): 3.94 µM and 8.68 µM | TGI (SK-MEL-28 melanoma): 12.4 µM and 17.3 µM | TGI (SK-MEL-5 melanoma): 3.32 µM and 4.01 µM | GI50 (SK-OV-3 ovarian): 1.98 µM and 4.47 µM | TGI (SK-OV-3 ovarian): > 85.5 µM | TGI (SN12C renal): 7.69 µM and 9.59 µM | GI50 (SNB-19 CNS): 0.776 µM and 1.91 µM | TGI (SNB-19 CNS): 5.6 µM and 14.3 µM | TGI (SNB-75 CNS): 0.82 µM and 1.99 µM | GI50 (SNB-78 CNS): 0.427 µM and 3.93 µM | TGI (SNB-78 CNS): 6.56 µM and > 25.2 µM | GI50 (SR leukemia): 2.34 µM and 9.55 µM | TGI (SR leukemia): 10.5 µM and > 54.3 µM | TGI (SW-620 colon): 37.9 µM and 21.3 µM | TGI (TK-10 renal): > 100 µM | GI50 (U251 CNS): 0.145 µM and 0.39 µM | TGI (U251 CNS): 2.93 µM and 9.46 µM | TGI (UACC-257 melanoma): 8.06 µM and 11.7 µM | TGI (UACC-62 melanoma): 8.04 µM and 12.7 µM | TGI (UO-31 renal): > 100 µM

— PubChem BioAssay (NCI)
